Data on 9 molecules can be found in PubChem BioAssay (NCI).

Test systems include RXF 393 renal; HOP-92 NSCLC; SK-MEL-5 melanoma; IGROV1 ovarian; MCF7 breast; SF-539 CNS; UO-31 renal; COLO 205 colon; NCI-H226 lung; M14 melanoma; SNB-75 CNS; UACC-62 melanoma; HOP-62 NSCLC; NCI/ADR-RES ovarian; SK-MEL-28 melanoma; TK-10 renal; OVCAR-3 ovarian; HL-60(TB) leukemia.
Holding throughout (assay): inhibition of tumour cell growth, NCI panel, 48 h

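Exposure lasted 48 hours, with cells grown in 96-well plates and compounds tested at five concentrations. TGI: total growth inhibition.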 Where a SMILES comes first, the peptide text is derived from it. [ ]: non-standard residue; d: D form. The star is where a group is joined. ξ: configuration not given here. ξD = NC(CC(=O)O)C(=O)O; Boc = CC(C)(C)OC(=O)*; Aib = CC(C)(N)C(=O)O; OBn = c1ccc(CO*)cc1

For the molecule `CC(C)(C)OC(=O)NC(CC(=O)OCc1ccccc1)C(=O)NC(C)(C)C(N)=O` (stereo unspecified) (Boc-[ξD](OBn)-[Aib]-NH2), the TGI in the assay with RXF 393 renal, with HOP-92 NSCLC, in the assay with SK-MEL-5 melanoma, in the assay with IGROV1 ovarian, in the assay on MCF7 breast and in the assay with SF-539 CNS was > 100 µM in each case. The TGI in the assay with UO-31 renal, with COLO 205 colon, with NCI-H226 lung, with M14 melanoma, with SNB-75 CNS and in the assay with UACC-62 melanoma was > 100 µM throughout. Moreover, the TGI with HOP-62 NSCLC, in the assay on NCI/ADR-RES ovarian, in the assay with SK-MEL-28 melanoma, in the assay with TK-10 renal and with OVCAR-3 ovarian was > 100 µM each time.

`CCC1C(NC(=O)OC)C(=O)N1[C@@H](C)c1ccccc1` (stereo partly specified): the TGI with RXF 393 renal, in the assay on HOP-92 NSCLC, with SK-MEL-5 melanoma, in the assay with IGROV1 ovarian, in the assay with MCF7 breast and with SF-539 CNS was > 100 µM throughout. Further, the TGI in the assay with UO-31 renal, in the assay on COLO 205 colon, in the assay with NCI-H226 lung, in the assay with M14 melanoma, with SNB-75 CNS and with UACC-62 melanoma was > 100 µM throughout. The TGI in the assay with HOP-62 NSCLC, in the assay with NCI/ADR-RES ovarian, in the assay on SK-MEL-28 melanoma, with TK-10 renal and in the assay on OVCAR-3 ovarian was > 100 µM each time.

On to `COc1cc(C2c3cc4c(cc3OC(NNC(N)=S)C2C)OCO4)cc(OC)c1OC` (stereo unspecified), for which the TGI was 7.9 µM with HOP-92 NSCLC; > 100 µM in the assay with IGROV1 ovarian; > 100 µM in the assay with MCF7 breast; 0.523 µM in the assay with SF-539 CNS; 60.1 µM with UO-31 renal; 1.37 µM in the assay on COLO 205 colon. For the same molecule, the TGI is 21 µM in the assay with NCI-H226 lung; 0.631 µM in the assay on HL-60(TB) leukemia; > 51.9 µM in the assay with M14 melanoma; > 100 µM with SNB-75 CNS; > 100 µM in the assay on UACC-62 melanoma; > 100 µM with HOP-62 NSCLC. Also, the TGI in the assay with NCI/ADR-RES ovarian is > 100 µM; in the assay with SK-MEL-28 melanoma, > 100 µM; in the assay with TK-10 renal, > 100 µM; in the assay with OVCAR-3 ovarian it was > 57.6 µM.

For `Nc1nc(Cl)c(N)c(NCC2(CO)CCC(OCc3ccccc3)C2)n1` (stereo unspecified), the TGI in the assay on RXF 393 renal, in the assay on HOP-92 NSCLC, with SK-MEL-5 melanoma, in the assay on IGROV1 ovarian, in the assay with MCF7 breast and with SF-539 CNS was > 100 µM throughout. The TGI with UO-31 renal, with COLO 205 colon, in the assay on NCI-H226 lung, in the assay with SNB-75 CNS, with UACC-62 melanoma and with HOP-62 NSCLC was > 100 µM in each case. Besides, the TGI with NCI/ADR-RES ovarian, in the assay on SK-MEL-28 melanoma, in the assay with TK-10 renal and with OVCAR-3 ovarian was > 100 µM in each case.

Consider `CCOC(=O)c1c(CN2CCNCC2)nc2ccc(Cl)cc2c1-c1ccccc1`, for which the TGI stood at 10.7 µM in the assay with RXF 393 renal; 3.16 µM in the assay with HOP-92 NSCLC; 2.16 µM in the assay with SK-MEL-5 melanoma; 17.1 µM with IGROV1 ovarian; 28.6 µM in the assay on MCF7 breast; 7.56 µM in the assay on SF-539 CNS. For the same molecule, the TGI in the assay on UO-31 renal was 9.69 µM; in the assay with COLO 205 colon, 4.16 µM; with NCI-H226 lung it was 33.4 µM; with HL-60(TB) leukemia, 4.38 µM; with M14 melanoma it was 3.85 µM; in the assay on SNB-75 CNS, 9.5 µM. Further, the TGI with UACC-62 melanoma turned out to be 3.76 µM; in the assay with HOP-62 NSCLC it was 21.6 µM; in the assay on SK-MEL-28 melanoma, 7.04 µM; in the assay on TK-10 renal, 10.8 µM; in the assay on OVCAR-3 ovarian it was 20.2 µM.

Consider `COc1cccc([C@@H]2C/C(=N\NC(=O)C(=O)N[C@@H](C)c3ccccc3)c3ccccc3N2)c1`, for which the TGI in the assay with RXF 393 renal was > 100 µM; in the assay with HOP-92 NSCLC it was > 100 µM; in the assay on SK-MEL-5 melanoma, > 100 µM; in the assay on MCF7 breast, > 100 µM; in the assay with SF-539 CNS, 30.4 µM; with UO-31 renal, > 100 µM. For the same molecule, the TGI in the assay on COLO 205 colon was > 100 µM; in the assay on NCI-H226 lung, > 100 µM; with M14 melanoma, > 100 µM; in the assay on SNB-75 CNS, > 100 µM; in the assay on UACC-62 melanoma it was 38.4 µM; in the assay on HOP-62 NSCLC, > 100 µM. For the same molecule, the TGI in the assay on NCI/ADR-RES ovarian, in the assay on SK-MEL-28 melanoma, with TK-10 renal and in the assay on OVCAR-3 ovarian was > 100 µM in each case.

For the molecule `CC(C)CC(=O)CC(C)[C@]1(CCCOCc2ccccc2)C(=O)N2CCC3(C[C@@]24CCC[C@H]41)OCCO3` (stereo partly specified), the TGI in the assay with HOP-92 NSCLC, in the assay on SK-MEL-5 melanoma, in the assay on IGROV1 ovarian, in the assay with MCF7 breast, with SF-539 CNS and in the assay with UO-31 renal was > 10 µM each time. Moreover, the TGI in the assay on COLO 205 colon, with NCI-H226 lung, in the assay with HL-60(TB) leukemia, in the assay on M14 melanoma, with HOP-62 NSCLC and in the assay on NCI/ADR-RES ovarian was > 10 µM in each case. For the same molecule, the TGI with TK-10 renal and in the assay on OVCAR-3 ovarian was > 10 µM each time.

For the molecule `CC1(C)CN(CC(=O)O)CC(Cc2ccc(OCC(=O)O)cc2)N(CC(=O)O)CC(C)(C)SS1` (stereo unspecified), the TGI in the assay on RXF 393 renal, with HOP-92 NSCLC, with SK-MEL-5 melanoma, with IGROV1 ovarian, in the assay on MCF7 breast and in the assay on SF-539 CNS was > 100 µM in each case. The TGI with UO-31 renal, with COLO 205 colon, in the assay with NCI-H226 lung, with M14 melanoma, with SNB-75 CNS and with UACC-62 melanoma was > 100 µM each time. The TGI with HOP-62 NSCLC, with NCI/ADR-RES ovarian, in the assay on SK-MEL-28 melanoma, with TK-10 renal and in the assay with OVCAR-3 ovarian was > 100 µM each time.

`N#CC(O)CCOCc1ccccc1` (stereo unspecified): the TGI in the assay on HOP-92 NSCLC, in the assay on SK-MEL-5 melanoma, in the assay with IGROV1 ovarian, in the assay with MCF7 breast, in the assay on SF-539 CNS and in the assay on UO-31 renal was > 100 µM each time. The TGI with COLO 205 colon, in the assay with NCI-H226 lung, with HL-60(TB) leukemia, with M14 melanoma, with UACC-62 melanoma and in the assay on HOP-62 NSCLC was > 100 µM in each case. The TGI with NCI/ADR-RES ovarian, in the assay on SK-MEL-28 melanoma, in the assay with TK-10 renal and with OVCAR-3 ovarian was > 100 µM throughout.
